Our source for the IC50 and EC50 values is patent US20240116946A1 (Gilead Sciences, Inc., priority 2022, published 2024).

Structures are written as SMILES. Where two headings read alike, the source gives them in different places.

The target of assay [1] is recombinant SARS-CoV-2 Main protease (Mpro) (Severe acute respiratory syndrome coronavirus 2 (2019-nCoV) (SARS-CoV-2), UniProt P0DTD1). Nature of the assay: Cov Mpro Biochemical IC50 Assay. As to conditions: recombinant SARS-CoV-2 Mpro 7.5 nM, fluorogenic peptide substrate 40 μM; read-out: MPro IC50.
A further assay concerns SARS-CoV-2-NLuc. Nature of the assay: microbe, parasite or virus in culture. The assay is classed as cell-based, SARS Coronavirus 2.
[2] abbreviates: Severe acute respiratory syndrome coronavirus, 48 h, read-out: MPro EC50.
Where [3] appears, read: Severe acute respiratory syndrome coronavirus, 48 h; read-out: MPro EC50.

On to `COc1ccc(Cl)c(-c2cc3[nH]c(=O)n(-c4cncc5cc(F)ccc45)c(=O)c3s2)c1` [Example 580, 6-(2-chloro-5-methoxyphenyl)-3-(7-fluoroisoquinolin-4-yl)thieno[3,2-d]pyrimidine-2,4(1H,3H)-dione], for which the IC50 in assay [1] was 7.53 nM. Also, in the assay with SARS-CoV-2-NLuc (setting [2]), the EC50 is 70.9 nM.
For `COc1ccc(Cl)c(-c2cc3[nH]c(=O)n(-c4cncc5ccc(O)cc45)c(=O)c3s2)c1` [Example 581] the same measures were less than 2.54 nM and 151 nM.
Take `COc1ccc(Cl)c(-c2cc3[nH]c(=O)n(-c4cncc5cnccc45)c(=O)c3s2)c1` [Example 582]: the IC50 in assay [1] was 8.83 nM. For the same molecule, the EC50 with SARS-CoV-2-NLuc (setting [2]) was 31.7 nM.
Taken in the same sequence, the figures for `COc1ccc(C#N)c(-c2cc3[nH]c(=O)n(-c4cncc5cnccc45)c(=O)c3s2)c1` [Example 583] were 20.9 nM and 227 nM.
Regarding `O=c1[nH]c2cc(-c3ccccc3Cl)sc2c(=O)n1-c1cncc2cnccc12` [Example 584], the half-inhibitory concentration (IC50) in assay [1] worked out at 12.9 nM. Also, the EC50 with SARS-CoV-2-NLuc (setting [2]) came out at 31.9 nM.
For `COc1ccc(Cl)c(-c2cc3[nH]c(=O)n(-c4cncc5c(F)cccc45)c(=O)c3s2)c1` [Example 585], in assay [1], the IC50 is 10.1 nM. Moreover, the EC50 in the assay on SARS-CoV-2-NLuc (setting [2]) was 29.3 nM.
For the molecule `COc1ccc(Cl)c(-c2cc3[nH]c(=O)n(-c4cncc5c4OCCC5)c(=O)c3s2)c1` [Example 586], the IC50 in assay [1] stood at 26.2 nM. Also, the EC50 with SARS-CoV-2-NLuc (setting [2]) was 54.3 nM.
For the molecule `COc1ccc(C#N)c(-c2cc3[nH]c(=O)n(-c4cncc5c4OCCC5)c(=O)c3s2)c1` [Example 587], in assay [1], the IC50 worked out at 27.9 nM. For the same molecule, the EC50 in the assay on SARS-CoV-2-NLuc (setting [2]) was determined as 117 nM.
Turning to `O=c1[nH]c2cc(-c3ccccc3Cl)sc2c(=O)n1-c1cncc2c1OCCC2` [Example 588], the IC50 in assay [1] came to 14.8 nM. The EC50 with SARS-CoV-2-NLuc (setting [2]) turned out to be 47.4 nM.
`COc1ccc(C#N)c(-c2cc3[nH]c(=O)n(-c4cncc5ccc(F)cc45)c(=O)c3s2)c1` [Example 589]: the IC50 in assay [1] amounted to 5.01 nM. Moreover, the EC50 in the assay on SARS-CoV-2-NLuc (setting [2]) amounted to 23.7 nM.
Turning to `O=c1[nH]c2cc(-c3ccccc3Cl)sc2c(=O)n1-c1cncc2cc(Cl)ccc12` [Example 590], the IC50 in assay [1] was 194 nM. Also, the EC50 in the assay with SARS-CoV-2-NLuc (setting [2]) amounted to 299 nM.
Taken in the same sequence, the figures for `COc1ccc(Cl)c(-c2cc3[nH]c(=O)n(-c4cncc5cc(Cl)ccc45)c(=O)c3s2)c1` [Example 591] were 12.2 nM and 142 nM.
As to `O=c1[nH]c2cc(-c3ccccc3Cl)sc2c(=O)n1-c1cncc2c(Cl)cccc12` [Example 592], the IC50 in assay [1] is more than 50000 nM. Further, the concentration for a half-maximal effect (EC50) in the assay on SARS-CoV-2-NLuc (setting [2]) is 39500 nM.
Regarding `COc1ccc(Cl)c(-c2ccc3c(=O)n(-c4cncc5c(Cl)cccc45)c(=O)[nH]c3c2)c1` [Example 593], the IC50 in assay [1] was found to be 38400 nM. Further, the EC50 in the assay with SARS-CoV-2-NLuc (setting [2]) amounted to 5790 nM.
As to `COc1ccc(C#N)c(-c2cc3[nH]c(=O)n(-c4cncc5c(Cl)cccc45)c(=O)c3s2)c1` [Example 594], the IC50 in assay [1] was 883 nM. The EC50 in the assay with SARS-CoV-2-NLuc (setting [2]) is 929 nM.
As for `COc1ccc(Cl)c(-c2cc3[nH]c(=O)n(-c4cncc5c(Cl)cccc45)c(=O)c3s2)c1` [Example 595], the IC50 in assay [1] is 476 nM. Moreover, the EC50 in the assay on SARS-CoV-2-NLuc (setting [2]) was determined as 1180 nM.
For `O=c1[nH]c2cc(-c3ccccc3Cl)sc2c(=O)n1-c1cncc2c1CCCO2` [Example 596] the same measures were 38.2 nM and 108 nM.
Taken in the same sequence, the figures for `COc1ccc(Cl)c(-c2ccc3c(=O)n(-c4cncc5c4CCCO5)c(=O)[nH]c3c2)c1` [Example 597] were 160 nM and 205 nM.
For `COc1ccc(C#N)c(-c2cc3[nH]c(=O)n(-c4cncc5c4CCCO5)c(=O)c3s2)c1` [Example 598] the same measures were 29.6 nM and 150 nM.
Consider `COc1ccc(Cl)c(-c2cc3[nH]c(=O)n(-c4cncc5c4CCCO5)c(=O)c3s2)c1` [Example 599], for which, in assay [1], the IC50 was 4.98 nM. Moreover, in the assay with SARS-CoV-2-NLuc (setting [2]), the EC50 was 48.9 nM.
For `O=c1[nH]c2cc(-c3ccccc3Cl)sc2c(=O)n1-c1cncc2cccc(Cl)c12` [Example 600] the same measures were 5.29 nM and 18.1 nM.
Turning to `COc1ccc(Cl)c(-c2cc3[nH]c(=O)n(-c4cncc5cccc(Cl)c45)c(=O)c3s2)c1` [Example 601], the IC50 in assay [1] is less than 2.54 nM. Also, the EC50 with SARS-CoV-2-NLuc (setting [2]) is 14.7 nM.
Turning to `COc1ccc(C#N)c(-c2cc3[nH]c(=O)n(-c4cncc5ccc(N6CCn7c(nnc7C(F)(F)F)C6)cc45)c(=O)c3s2)c1` [Example 602], the IC50 in assay [1] stood at 5.77 nM. Further, in the assay on SARS-CoV-2-NLuc (setting [2]), the EC50 was determined as 359 nM.
For `COc1ccc(Cl)c(-c2cc3[nH]c(=O)n(-c4cncc5ccc(N6CCn7c(nnc7C(F)(F)F)C6)cc45)c(=O)c3s2)c1` [Example 603], the IC50 in assay [1] came out at 2.75 nM. In the assay with SARS-CoV-2-NLuc (setting [2]), the EC50 came to 14.6 nM.
Turning to `COc1ccc(Cl)c(-c2cc3[nH]c(=O)n(-c4cncc5ccc(N6CCn7nc(C(F)(F)F)nc7C6)cc45)c(=O)c3s2)c1` [Example 604], the IC50 in assay [1] amounted to 6.32 nM. Also, the EC50 in the assay with SARS-CoV-2-NLuc (setting [2]) is 10.9 nM.
For `COc1ccc(C#N)c(-c2cc3[nH]c(=O)n(-c4cncc5ccc(N6CCn7nc(C(F)(F)F)nc7C6)cc45)c(=O)c3s2)c1` [Example 605] the same measures were 10.1 nM and 91.2 nM.
For the molecule `COc1ccc(Cl)c(-c2cc3[nH]c(=O)n(-c4cncc5ccc(N6CCn7nnc(C)c7C6)cc45)c(=O)c3s2)c1` [Example 606], in assay [1], the IC50 is less than 2.54 nM. Further, in the assay with SARS-CoV-2-NLuc (setting [2]), the EC50 was 28.1 nM.
For `COc1ccc(Cl)c(-c2cc3[nH]c(=O)n(-c4cncc5sccc45)c(=O)c3s2)c1` [Example 607] the same measures were 4.52 nM and 4.34 nM.
On to `COc1ccc(C#N)c(-c2cc3[nH]c(=O)n(-c4cncc5sccc45)c(=O)c3s2)c1` [Example 608], for which, in assay [1], the IC50 was less than 2.54 nM. Also, the EC50 in the assay with SARS-CoV-2-NLuc (setting [2]) is less than 4.97 nM.
Take `COc1ccc(Cl)c(-c2cc3[nH]c(=O)n(-c4cncc5scc(C)c45)c(=O)c3s2)c1` [Example 609, 6-(2-chloro-5-methoxyphenyl)-3-(3-methylthieno[2,3-c]pyridin-4-yl)thieno[3,2-d]pyrimidine-2,4(1H,3H)-dione]: the IC50 in assay [1] is less than 2.54 nM. Besides, the EC50 in the assay on SARS-CoV-2-NLuc (setting [2]) was less than 3.39 nM.
Consider `COc1ccc(Cl)c(-c2cc3[nH]c(=O)n(-c4cncc5ccc(N6CCn7cc(C(F)(F)F)nc7C6)cc45)c(=O)c3s2)c1` [Example 610], for which the IC50 in assay [1] was less than 2.54 nM. Moreover, the half-maximal effective concentration (EC50) with SARS-CoV-2-NLuc (setting [2]) is 13.9 nM.
Consider `COc1cc(-c2cc3[nH]c(=O)n(-c4cncc5scc(C)c45)c(=O)c3s2)c(Cl)cc1F` [Example 611, 6-(2-chloro-4-fluoro-5-methoxyphenyl)-3-(3-methylthieno[2,3-c]pyridin-4-yl)thieno[3,2-d]pyrimidine-2,4(1H,3H)-dione], for which the IC50 in assay [1] was less than 2.54 nM. In the assay with SARS-CoV-2-NLuc (setting [2]), the 50% effective concentration (EC50) stood at 4.95 nM.
On to `COc1ccc(Cl)c(-c2cc3[nH]c(=O)n(-c4cncc(CC(=O)N5CCOCC5)c4)c(=O)c3s2)c1` [Example 612], for which the concentration for half-maximal inhibition (IC50) in assay [1] worked out at 12.2 nM. For the same molecule, in the assay on SARS-CoV-2-NLuc (setting [2]), the EC50 is more than 1000 nM.
Turning to `CNC(=O)CCn1c(=O)n(-c2cncc3ccccc23)c(=O)c2sc(-c3ccccc3Cl)cc21` [Example 613, 3-(6-(2-chlorophenyl)-3-(isoquinolin-4-yl)-2,4-dioxo-3,4-dihydrothieno[3,2-d]pyrimidin-1(2H)-yl)-N-methylpropanamide], the half-inhibitory concentration (IC50) in assay [1] came to 68.6 nM. Besides, the EC50 with SARS-CoV-2-NLuc (setting [3]) is 91.9 nM.
On to `CC(=O)NCCn1c(=O)n(-c2cncc3ccccc23)c(=O)c2sc(-c3ccccc3Cl)cc21` [Example 614], for which the half-inhibitory concentration (IC50) in assay [1] came to 35 nM. For the same molecule, in the assay on SARS-CoV-2-NLuc (read-out: MPro EC50), the EC50 turned out to be 64 nM.
As to `Cc1cc(-c2cccc(Cl)c2-c2cc3[nH]c(=O)n(-c4cncc(C5CC5)c4)c(=O)c3s2)cnn1` [Example 615, 6-(2-chloro-6-(6-methylpyridazin-4-yl)phenyl)-3-(5-cyclopropylpyridin-3-yl)thieno[3,2-d]pyrimidine-2,4(1H,3H)-dione], the IC50 in assay [1] came to 9.85 nM. Also, in the assay with SARS-CoV-2-NLuc (setting [3]), the EC50 turned out to be 140 nM.
`O=c1[nH]c2cc(-c3c(Cl)cccc3-c3ccnnc3)sc2c(=O)n1-c1cncc(C2CC2)c1` [Example 616]: in assay [1], the 50% inhibitory concentration (IC50) amounted to 6.92 nM. In addition, the EC50 with SARS-CoV-2-NLuc (setting [2]) worked out at 320 nM.
Consider `Cc1nn(C)cc1-c1cccc(Cl)c1-c1cc2[nH]c(=O)n(-c3cncc(C4CC4)c3)c(=O)c2s1` [Example 617], for which the IC50 in assay [1] amounted to 7.26 nM. In addition, the EC50 with SARS-CoV-2-NLuc (setting [2]) stood at 19.5 nM.
Turning to `Cc1cc(-c2cccc(Cl)c2-c2cc3[nH]c(=O)n(-c4cncc(C5CC5)c4)c(=O)c3s2)cn2ncnc12` [Example 618], in assay [1], the IC50 is 6.56 nM. The EC50 in the assay with SARS-CoV-2-NLuc (setting [2]) came out at 16 nM.
Consider `CNC(=O)CCn1c(=O)n(-c2cncc(C3CC3)c2)c(=O)c2sc(-c3ccccc3Cl)cc21` [Example 619, 3-(6-(2-chlorophenyl)-3-(5-cyclopropylpyridin-3-yl)-2,4-dioxo-3,4-dihydrothieno[3,2-d]pyrimidin-1(2H)-yl)-N-methylpropanamide], for which the IC50 in assay [1] worked out at 245 nM. The concentration for a half-maximal effect (EC50) in the assay with SARS-CoV-2-NLuc (setting [3]) is 451 nM.
Turning to `CC(=O)NCCn1c(=O)n(-c2cncc(C3CC3)c2)c(=O)c2sc(-c3ccccc3Cl)cc21` [Example 620], the concentration for half-maximal inhibition (IC50) in assay [1] was 281 nM. The EC50 in the assay with SARS-CoV-2-NLuc (setting [2]) amounted to 759 nM.
Consider `Cn1cnc(Cn2c(=O)n(-c3cncc(C4CC4)c3)c(=O)c3sc(-c4ccccc4Cl)cc32)n1` [Example 621], for which, in assay [1], the IC50 turned out to be 495 nM. The EC50 in the assay on SARS-CoV-2-NLuc (setting [2]) was determined as 710 nM.
As for `O=c1[nH]c2cc(-c3ccccc3Cl)sc2c(=O)n1-c1cncc2ccc(F)cc12` [Example 622, 6-(2-chlorophenyl)-3-(6-fluoroisoquinolin-4-yl)thieno[3,2-d]pyrimidine-2,4(1H,3H)-dione], in assay [1], the IC50 worked out at 15.4 nM. The EC50 in the assay on SARS-CoV-2-NLuc (setting [3]) was 39.3 nM.
Turning to `COc1ccc(Cl)c(-c2cc3[nH]c(=O)n(-c4cncc5ccc(F)cc45)c(=O)c3s2)c1` [Example 623, 6-(2-chloro-5-methoxy-phenyl)-3-(6-fluoro-4-isoquinolyl)-1H-thieno[3,2-d]pyrimidine-2,4-dione], in assay [1], the IC50 turned out to be 11.5 nM. Moreover, the half-maximal effective concentration (EC50) in the assay on SARS-CoV-2-NLuc (setting [3]) amounted to 30 nM.

By IC50 is commonly meant the point on the concentration scale where inhibition reaches its midpoint. One may read the EC50 as the concentration needed to bring the measured effect to its halfway point.
